Legend:
Test in all cases: NCI 60 cell line single dose screen (SRB)
Assay type in all cases: cell-based
NCI-H322M = conditions: Homo sapiens; NCI-H322M (non-small cell lung cancer), single dose 10^−5 M, 48 h; read-out: Growth inhibition percentage
Experimental: (§1) Anticancer activity screening of the newly synthesised compounds was measured in vitro utilising 60 different human tumour cell lines provided by US National Cancer Institute according to previously reported standard procedure[27–29] as follows: Cells are inoculated into 96-well microtitre plates in 100 ml. After cell inoculation, the microtitre plates are incubated at 37 °C, 5% CO2, 95% air and 100% relative humidity for 24 h prior to addition of experimental compounds. After 24 h, two plates of each cell line are fixed in situ with TCA, to represent a measurement of the cell population for each cell line at the time of drug addition (Tz). Experimental compounds are solubilised in dimethyl sulphoxide at 400-fold the desired final maximum test concentration and stored frozen prior to use. At the time of compound addition, an aliquot of frozen concentrate is thawed and diluted to twice the desired final maximum test concentration with complete medium containing […] gentamicin. Aliquots of […] of the compounds dilutions are added to the appropriate microtitre wells already containing 100 ml of medium, resulting in the required final compound concentration. Following compound addition, the plates are incubated for an additional 48 h at 37 °C, 5% CO2, 95% air, and 100% relative humidity. For adherent cells, the assay is terminated by the addition of cold trichloroacetic acid (TCA). Cells are fixed in situ by the gentle addition of 50 ml of cold 50% (w/v) TCA (final concentration, 10% TCA) and incubated for 60 min at 4 °C. The supernatant is discarded, and the plates are washed five times with tap water and air-dried. Sulphorhodamine B (SRB) solution (100 ml) at 0.4% (w/v) in 1% acetic acid is added to each well, and plates are incubated for 10 min at room temperature. After staining, unbound dye is removed by washing five times with 1% acetic acid and the plates are air-dried. Bound stain is subsequently solubilised with 10 mM trizma base, and the absorbance is read on an automated plate reader at a wavelength of 515 nm. For suspension cells, the methodology is the same except that the assay is terminated by fixing settled cells at the bottom of the wells by gently adding 50 ml of 80% TCA (final concentration, 16% TCA). Using the absorbance measurements [time zero, (Tz), control growth, (C), and test growth in the presence of compound (Ti)], the percentage growth is calculated for each compound. Percentage growth inhibition is calculated as: [(Ti – Tz)/(C – Tz)] x 100 for concentrations for which Ti >/=Tz. [(Ti – Tz)/Tz] x 100 for concentrations for which Ti < Tz.

SK-MEL-5 = conditions: Homo sapiens; SK-MEL-5 (melanoma), single dose 10^−5 M, 48 h; read-out: Growth inhibition percentage
Experimental: as §1

HCC-2998 = conditions: Homo sapiens; HCC-2998 (colon cancer), single dose 10^−5 M, 48 h; read-out: Growth inhibition percentage
Experimental: as §1

NCI-H226 = conditions: Homo sapiens; NCI-H226 (non-small cell lung cancer), single dose 10^−5 M, 48 h; read-out: Growth inhibition percentage
Experimental: as §1

HCT-116 = conditions: Homo sapiens; HCT-116 (colon cancer), single dose 10^−5 M, 48 h; read-out: Growth inhibition percentage
Experimental: as §1

MOLT-4 = conditions: Homo sapiens; MOLT-4 (leukemia), single dose 10^−5 M, 48 h; read-out: Growth inhibition percentage
Experimental: as §1

786-0 = conditions: Homo sapiens; 786-0 (renal cancer), single dose 10^−5 M, 48 h; read-out: Growth inhibition percentage
Experimental: as §1

CCRF-CEM = conditions: Homo sapiens; CCRF-CEM (leukemia), single dose 10^−5 M, 48 h; read-out: Growth inhibition percentage
Experimental: as §1

K-562 = conditions: Homo sapiens, K562; K-562 (leukemia), single dose 10^−5 M, 48 h; read-out: Growth inhibition percentage
Experimental: as §1

OVCAR-3 = conditions: Homo sapiens; OVCAR-3 (ovarian cancer), single dose 10^−5 M, 48 h; read-out: Growth inhibition percentage
Experimental: as §1

SN12C = conditions: Homo sapiens; SN12C (renal cancer), single dose 10^−5 M, 48 h; read-out: Growth inhibition percentage
Experimental: as §1

NCI-H23 = conditions: Homo sapiens; NCI-H23 (non-small cell lung cancer), single dose 10^−5 M, 48 h; read-out: Growth inhibition percentage
Experimental: as §1

SNB-75 = conditions: Homo sapiens; SNB-75 (CNS cancer), single dose 10^−5 M, 48 h; read-out: Growth inhibition percentage
Experimental: as §1

OVCAR-8 = conditions: Homo sapiens; OVCAR-8 (ovarian cancer), single dose 10^−5 M, 48 h; read-out: Growth inhibition percentage
Experimental: as §1

SF-268 = conditions: Homo sapiens; SF-268 (CNS cancer), single dose 10^−5 M, 48 h; read-out: Growth inhibition percentage
Experimental: as §1

ACHN = conditions: Homo sapiens; ACHN (renal cancer), single dose 10^−5 M, 48 h; read-out: Growth inhibition percentage
Experimental: as §1

SNB-19 = conditions: Homo sapiens; SNB-19 (CNS cancer), single dose 10^−5 M, 48 h; read-out: Growth inhibition percentage
Experimental: as §1

RXF 393 = conditions: Homo sapiens; RXF 393 (renal cancer), single dose 10^−5 M, 48 h; read-out: Growth inhibition percentage
Experimental: as §1

BT-549 = conditions: Homo sapiens; BT-549 (breast cancer), single dose 10^−5 M, 48 h; read-out: Growth inhibition percentage
Experimental: as §1

OVCAR-4 = conditions: Homo sapiens; OVCAR-4 (ovarian cancer), single dose 10^−5 M, 48 h; read-out: Growth inhibition percentage
Experimental: as §1

LOX IMVI = conditions: Homo sapiens; LOX IMVI (melanoma), single dose 10^−5 M, 48 h; read-out: Growth inhibition percentage
Experimental: as §1

SMILES	inhibition at 10 µM (NCI-H322M) [%]	inhibition at 10 µM (SK-MEL-5) [%]	inhibition at 10 µM (HCC-2998) [%]	inhibition at 10 µM (NCI-H226) [%]	inhibition at 10 µM (HCT-116) [%]	inhibition at 10 µM (MOLT-4) [%]	inhibition at 10 µM (786-0) [%]	inhibition at 10 µM (CCRF-CEM) [%]	inhibition at 10 µM (K-562) [%]	inhibition at 10 µM (OVCAR-3) [%]	inhibition at 10 µM (SN12C) [%]	inhibition at 10 µM (NCI-H23) [%]	inhibition at 10 µM (SNB-75) [%]	inhibition at 10 µM (OVCAR-8) [%]	inhibition at 10 µM (SF-268) [%]	inhibition at 10 µM (ACHN) [%]	inhibition at 10 µM (SNB-19) [%]	inhibition at 10 µM (RXF 393) [%]	inhibition at 10 µM (BT-549) [%]	inhibition at 10 µM (OVCAR-4) [%]	also measured
Cc1nn(-c2ccc(F)cc2)c2nc[nH]c(=O)c12 [Compound 3, 1–(4-Fluorophenyl)-3-methyl-1H-pyrazolo[3,4-d]pyrimidin-4(5H)-one]	5.19	0.31	-2.16	-9.27	-1.64	3.3	1.16	-1.13	1.69	-5.82	-2.5	4.09	0.29	-0.16	-1.71	-4.68	-3.69	-11.4	-3.59	-8.19	inhibition at 10 µM (LOX IMVI): 2.19%
Cc1nn(-c2ccc(F)cc2)c2ncnc(N)c12 [Compound 4, 1–(4-Fluorophenyl)-3-methyl-1H-pyrazolo[3,4-d]pyrimidin-4-amine]	7.26	2	-2.52	-7.4	-8.66	0.58	9.41	-12.7	1.98	-2.81	-1.4	4.73	8.18	-4.64	3.71	0.98	-9.19	-17.3	9.79	-4.38	inhibition at 10 µM (LOX IMVI): 1.75%
Cc1nn(-c2ccc(F)cc2)c2nc(N)nc(N)c12 [Compound 5, 1–(4-Fluorophenyl)-3-methyl-1H-pyrazolo[3,4-d]pyrimidine-4,6-diamine]	8.14	0.86	3.79	-8.08	-2.75	-0.48	2.79	-16.8	-11.9	-12.9	-2.74	11.8	5.33	-7.15	-2.3	-3.79	-7.94	-13	-17.4	1.28	inhibition at 10 µM (LOX IMVI): 2.19%
Cc1nn(-c2ccc(F)cc2)c2ncnc(Cl)c12 [Compound 6, 4-Chloro-1–(4-fluorophenyl)-3-methyl-1H-pyrazolo[3,4-d]pyrimidine]	5.32	5.94	-5.66	15.1	7.98	13.8	-0.09	1.47	15.4	-8.39	1.02	7.86	6.36	6.34	-1.16	4.11	7.79	-3.61	-11.5	-0.8	inhibition at 10 µM (LOX IMVI): 6.64%
Cc1ccc(Nc2ncnc3c2c(C)nn3-c2ccc(F)cc2)cc1 [Compound 7c, 1–(4-Fluorophenyl)-3-methyl-N-(p-tolyl)-1H-pyrazolo[3,4-d]-pyrimidin-4-amine]	10	-3.74	1.34	-10.2	3.2	1.83	0.56	-8.18	0.26	-6.58	48.4	4.63	-5.2	2.02	1.06	-12.2	7.21	-13.7	-8.83	-3.91	inhibition at 10 µM (LOX IMVI): -0.99%
Cc1nn(-c2ccc(F)cc2)c2ncnc(Nc3ccc(F)c(Cl)c3)c12 [Compound 7d, N-(3-Chloro-4-fluorophenyl)-1–(4-fluorophenyl)-3-methyl-1H-pyrazolo[3,4-d] pyrimidin-4-amine]	12	-0.44	1.79	62.9	19.2	4.27	21.3	0.7	1.78	9.57	21.5	7.53	25	16.6	3.94	60.4	20.4	-0.39	-4.84	53.1	inhibition at 10 µM (LOX IMVI): 8.68%
Cc1nn(-c2ccc(F)cc2)c2ncnc(N3CCOCC3)c12 [Compound 8a, 1–(4-Fluorophenyl)-3-methyl-4-morpholino-1H-pyrazolo[3,4-d]pyrimidine]	5.51	-0.67	2.41	-8.48	-7.69	5.79	10.6	2.31	-3.68	-5.65	1.12	0.28	0.92	-5.87	-0.79	-10.3	5.14	-15.7	3.96	-10.7	inhibition at 10 µM (LOX IMVI): -2.33%

Reference: PMC6352943, “Novel pyrazolo[3,4-d]pyrimidines: design, synthesis, anticancer activity, dual EGFR/ErbB2 receptor tyrosine kinases inhibitory activity, effects on cell cycle profile and caspase-3-mediated apoptosis” (Journal of Enzyme Inhibition and Medicinal Chemistry, 2019)
